Measurements published in patent publication US20090099217A1, “2-Aminopyrimidin-4-Ones And Their Use For Treating Or Preventing Alpha Beta-Related Pathologies” (ASTEX THERAPEUTICS LTD., priority 2006, published 2009).
Counter-ions that a name gives are not always drawn.

Target: T1, human β-Secretase (Homo sapiens, UniProt P56817)
T1 construct: The soluble part of the human β-Secretase (AA 1-AA 460) was cloned; Fc domain of IgG1 (C); made in house
Test: TR-FRET Assay
Format: biochemical
Settings: sBACE-Fc enzyme 0.3 nM; substrate (Europium)CEVNLDAEFK(Qsy7) 100 nM; pH 4.5
Description: The enzyme used in the IGEN Cleavage-, Fluorescent-, TR-FRET- and the BiaCore assay is described as follows:
The soluble part of the human β-Secretase (AA 1-AA 460) was cloned into the ASP2-Fc10-1-IRES-GFP-neoK mammalian expression vector. The gene was fused to the Fc domain of IgG1 (affinity tag) and stably cloned into HEK 293 cells. Purified sBACE-Fc is stored in Tris buffer, pH 9.2 and has a purity of 95%.
Dilute the enzyme (truncated form) to 6 μg/mL (stock 1.3 mg/mL) and the substrate (Europium)CEVNLDAEFK(Qsy7) to 200 nM (stock 60 μM) in reaction buffer (NaAcetate, chaps, triton x-100, EDTA pH4.5). The Biomek FX is used for all liquid handling and the enzyme and substrate solutions are kept on ice until they are placed in Biomek FX. Enzyme (9 μl) is added to the plate then 1 μl of compound in dimethylsulphoxide is added, mixed and pre-incubated for 10 minutes. Substrate (10 μl) is then added, mixed and the reaction proceeds in the dark for 15 minutes at room temperature. The reaction is stopped with the addition of Stop solution (7 μl, NaAcetate pH 9). The fluorescence of the product is measured on a Victor II plate reader with an excitation wavelength of 340 nm and an emission wavelength of 615 nm. The assay is done in a Costar 384 well round bottom, low volume, non-binding surface (Corning #3676). […]

T1 sequence (P56817 22-460): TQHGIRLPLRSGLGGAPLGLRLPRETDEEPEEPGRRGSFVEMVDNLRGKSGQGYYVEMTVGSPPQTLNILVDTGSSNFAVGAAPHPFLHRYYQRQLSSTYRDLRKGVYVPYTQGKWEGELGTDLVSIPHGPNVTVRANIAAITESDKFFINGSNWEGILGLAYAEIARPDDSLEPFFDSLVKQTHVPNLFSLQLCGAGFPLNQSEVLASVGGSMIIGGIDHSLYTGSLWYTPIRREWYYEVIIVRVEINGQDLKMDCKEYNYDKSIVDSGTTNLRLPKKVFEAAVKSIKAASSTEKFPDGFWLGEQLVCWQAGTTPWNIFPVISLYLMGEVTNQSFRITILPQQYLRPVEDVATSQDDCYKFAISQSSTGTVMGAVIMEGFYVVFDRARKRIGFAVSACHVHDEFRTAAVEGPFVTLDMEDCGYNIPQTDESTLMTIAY

| Compound | IC50 [nM] |
| --- | --- |
| CN1C(=O)CC(C)(CCc2cccc(-c3ccnc(Cl)c3)c2)N=C1N (centres unmarked) [Example 20, 2-Amino-6-{2-[3-(2-chloropyridin-4-yl)phenyl]ethyl}-3,6-dimethyl-5,6-dihydropyrimidin-4(3H)-one hydrochloride] | 114 |
| COc1cncc(-c2cccc(C3(C)CC(=O)N(C)C(N)=N3)c2)c1 (centres unmarked) [Example 21, 2-Amino-6-[3-(5-methoxypyridin-3-yl)phenyl]-3,6-dimethyl-5,6-dihydropyrimidin-4(3H)-one hydrochloride] | 316 |
